Read-outs that look alike come from different tables or passages of the source. Starred links: 1 amine or outer side, 2 acyl side, 3 side chain; linkers in the order of their positions; H or OH if unused. Positions of bridges follow the written chain, without caps; N, C: chain ends. Non-standard residues stand in square brackets, D forms with d. Residues, ends and D or L forms follow the SMILES beside them. *: point of attachment. TBMB = c1c(C[*:1])cc(C[*:3])cc1C[*:2]; Palmitoyl = CCCCCCCCCCCCCCCC(=O)*; Benzoyl(3-I) = O=C(c1cccc(I)c1)*; 4Abz = Nc1ccc(C(=O)O)cc1
Assay: Biodistribution in U-87 MG tumor-bearing mice
Assay type: in vivo, BALB/c nu-nu mice
Details: male, BALB/c nu-nu, mouse, iv, 37 kBq, total radioactivity; for tissue uptake at 5 min: 5 min after i.v. administration; for tissue uptake at 5 min / tissue uptake at 0.5 h / tissue uptake at 1 h / tissue uptake at 2 h / tissue uptake at 6 h / tissue uptake at 12 h / tissue uptake at 24 h: U-87 MG-bearing mice, mean ± SD, n = 3; for tissue uptake at 0.5 h: 30 min after i.v. administration; for tissue uptake at 1 h: 1 h after i.v. administration; for tissue uptake at 2 h: 2 h after i.v. administration; for tissue uptake at 6 h: 6 h after i.v. administration; for tissue uptake at 12 h: 12 h after i.v. administration; for tissue uptake at 24 h: 24 h after i.v. administration
Procedure: Animal experiments were performed in compliance with institutional animal care regulations, with the study protocol approved by the Experimental Animal Committee of Osaka Medical and Pharmaceutical University (Approval Numbers: 21–76, 22–76, and 23–76). Four-week-old male BALB/c nu-nu mice (Japan SLC, Shizuoka, Japan) were housed under a 12 h light/12 h dark cycle with free access to food and water. Tumor-bearing mice were established by suspending U-87 MG cells (2 × 10^6 cells/mouse) in PBS(–) and subcutaneously injecting 100 μL of the suspension into the right hind leg. For co-implantation models, A549 cells (2 × 10^6 cells/mouse) were suspended in PBS(–) and inoculated (100 μL) into the left hind leg of the same mice already inoculated with U-87 MG cells. Mice with tumor size approximately 10 mm in diameter, 4–5 weeks after inoculation, were used for biodistribution studies. Animals in which either tumor was not viable were excluded from the experiment.
U-87 MG-bearing mice (n = 42, 8–9 weeks old; 22–27 g) were randomly assigned into groups and administered [^125I]bcRGDpal or [^125I]bcRGDiba via intravenous injection (37 kBq in 100 μL of PBS containing 0.1% Tween 80 (PBS-T80)). At 5 min, 30 min, 1 h, 2 h, 6 h, 12 h, or 24 h post-injection, the mice were euthanized (n = 3 per time point). The heart, kidneys, liver, brain, pancreas, spleen, lung, small intestine, large intestine, muscle, skin, stomach, bone, and tumors were excised. Each organ’s weight and radioactivity were measured by a NaI well-type scintillation counter, and the % ID/g was calculated. To investigate the correlation between integrin expression and radioactivity accumulation, biodistribution at 2 h after administration of [^125I]bcRGDpal or [^125I]bcRGDiba was assessed in A549 and U-87 MG co-implantation mice (n = 5) using the same procedure. Additionally, co-implantation mice were injected with [^125I]bcRGDdimer (37 kBq/100 μL PBS-T80) and euthanized at 30 min, 2 h, and 4 h post-injection (n = 4 per time point), and % ID/g values were calculated as described above. The minimum sample size needed for the biodistribution study in U-87 MG-bearing mice was calculated using G Power software version 3.1.9.7. The calculation was based on a two-tailed test, with an effect size of 3.9, a significance level (α) of 0.05, and a statistical power (1 − β) of 0.8. […] The minimum required sample size for the biodistribution study in A549 and U-87 MG co-implantation mice was also calculated to be four animals per group (effect size = 2.5, α = 0.05, 1 − β = 0.8). To guarantee objective results, the experiment was carried out in a blinded manner. Specifically, drug administration and radioactivity measurements were conducted by different investigators to eliminate potential bias.

[1] = U-87 MG tumor, read-out: Radioactivity in U-87 MG tumor
[2] = blood, read-out: Radioactivity in blood
[3] = bone, read-out: Radioactivity in bone
[4] = brain, read-out: Radioactivity in brain
[5] = heart, read-out: Radioactivity in heart
[6] = kidneys, read-out: Radioactivity in kidneys
[7] = large intestine, read-out: Radioactivity in large intestine
[8] = liver, read-out: Radioactivity in liver

SMILES: CCCCCCCCCCCCCCCC(=O)N[C@@H](CCCCNC(=O)c1cccc(I)c1)C(=O)N1CCC[C@H]1C(=O)N1CCC[C@H]1C(=O)N1CCC[C@H]1C(=O)N[C@@H](CO)C(=O)NCC(=O)Nc1ccc(C(=O)N[C@@H](CO)C(=O)NCC(=O)N[C@H]2CSCc3cc4cc(c3)CSC[C@@H](NC(=O)[C@H](CCC(N)=O)NC(=O)[C@@H]3CCCN3C(=O)[C@H](Cc3c[nH]cn3)NC2=O)C(=O)N[C@@H](CCCNC(=N)N)C(=O)NCC(=O)N[C@@H](CC(=O)O)C(=O)N[C@@H](C(N)=O)CSC4)cc1 [[^125I]bcRGDpal] (Palmitoyl-K(Benzoyl(3-I))PPPSG[4Abz]SGCHPQ[dC]RGD[dC]-NH2; linker 10-14-18 via TBMB)
- tissue uptake at 5 min [1]: 1.4 ± 0.2 %ID/g
- tissue uptake at 0.5 h [1]: 3.4 ± 0.5 %ID/g
- tissue uptake at 1 h [1]: 4 ± 0.5 %ID/g
- tissue uptake at 2 h [1]: 3.9 ± 0.2 %ID/g
- tissue uptake at 6 h [1]: 2.1 ± 0.4 %ID/g
- tissue uptake at 12 h [1]: 0.9 ± 0.1 %ID/g
- tissue uptake at 24 h [1]: 0.3 ± 0.1 %ID/g
- tissue to tissue ratio (U-87 MG tumor/blood, all time points (5 min to 24 h)): < 1
- tissue uptake at 5 min [2]: 15.6 ± 1 %ID/g
- tissue uptake at 0.5 h [2]: 12.2 ± 0.8 %ID/g
- tissue uptake at 1 h [2]: 9.9 ± 0.5 %ID/g
- tissue uptake at 2 h [2]: 7.8 ± 0.4 %ID/g
- tissue uptake at 6 h [2]: 4.5 ± 0.4 %ID/g
- tissue uptake at 12 h [2]: 2 ± 0.3 %ID/g
- tissue uptake at 24 h [2]: 0.5 %ID/g
- tissue uptake at 5 min [3]: 1.4 ± 0.1 %ID/g
- tissue uptake at 0.5 h [3]: 1.7 ± 0.6 %ID/g
- tissue uptake at 1 h [3]: 1.1 ± 0.3 %ID/g
- tissue uptake at 2 h [3]: 1.3 ± 0.4 %ID/g
- tissue uptake at 6 h [3]: 0.7 ± 0.1 %ID/g
- tissue uptake at 12 h [3]: 0.4 %ID/g
- tissue uptake at 24 h [3]: 0.1 ± 0.1 %ID/g
- tissue uptake at 5 min [4]: 0.5 ± 0.1 %ID/g
- tissue uptake at 0.5 h [4]: 0.3 ± 0.1 %ID/g
- tissue uptake at 1 h [4]: 0.3 %ID/g
- tissue uptake at 2 h [4]: 0.2 %ID/g
- tissue uptake at 6 h [4]: 0.1 %ID/g
- tissue uptake at 12 h [4]: 0.1 %ID/g
- tissue uptake at 5 min [5]: 6.6 ± 0.1 %ID/g
- tissue uptake at 0.5 h [5]: 4.7 ± 0.4 %ID/g
- tissue uptake at 1 h [5]: 4.3 ± 0.3 %ID/g
- tissue uptake at 2 h [5]: 3.1 ± 0.2 %ID/g
- tissue uptake at 6 h [5]: 1.7 %ID/g
- tissue uptake at 12 h [5]: 0.8 ± 0.1 %ID/g
- tissue uptake at 24 h [5]: 0.2 %ID/g
- tissue uptake at 5 min [6]: 9 ± 0.2 %ID/g
- tissue uptake at 0.5 h [6]: 8.3 ± 0.9 %ID/g
- tissue uptake at 1 h [6]: 7.7 ± 0.2 %ID/g
- tissue uptake at 2 h [6]: 6.7 ± 0.6 %ID/g
- tissue uptake at 6 h [6]: 4.2 ± 0.6 %ID/g
- tissue uptake at 12 h [6]: 1.7 ± 0.2 %ID/g
- tissue uptake at 24 h [6]: 0.4 %ID/g
- tissue uptake at 5 min [7]: 0.9 ± 0.1 %ID/g
- tissue uptake at 0.5 h [7]: 1.4 ± 0.2 %ID/g
- tissue uptake at 1 h [7]: 1.4 ± 0.1 %ID/g
- tissue uptake at 2 h [7]: 6.9 ± 1.1 %ID/g
- tissue uptake at 6 h [7]: 11.8 ± 2 %ID/g
- tissue uptake at 12 h [7]: 7.5 ± 0.8 %ID/g
- tissue uptake at 24 h [7]: 2.3 ± 1.1 %ID/g
- tissue uptake at 5 min [8]: 17.6 ± 0.9 %ID/g
- tissue uptake at 0.5 h [8]: 19 ± 2.1 %ID/g

Reference: article PMC12030627, “Radioiodinated Bicyclic RGD Peptide Derivatives for Enhanced Tumor Accumulation” (Pharmaceuticals, 2025)
